From PubChem BioAssay (NCI)
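How tested: cells in 96-well plates exposed to compound for 48 hours at five concentrations. The concentration for 50% growth inhibition is given as GI50. At the TGI there is no net growth.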

Columns and labels:
Assay in all cases: inhibition of tumour cell growth, NCI panel, 48 h
[1] = tested on: A549 NSCLC
[2] = tested on: SF-539 CNS
[3] = tested on: HCT-116 colon
[4] = tested on: RPMI-8226 leukemia
[5] = tested on: OVCAR-4 ovarian
[6] = tested on: K-562 leukemia
[7] = tested on: HL-60(TB) leukemia
[8] = tested on: UO-31 renal
[9] = tested on: MOLT-4 leukemia
[10] = tested on: MCF7 breast

Structure (SMILES) | TGI [1] | TGI [2] | TGI [3] | TGI [4] | TGI [5] | TGI [6] | TGI [7] | TGI [8] | TGI [9] | GI50 [1] | GI50 [3] | GI50 [10] | TGI [10] | GI50 [4] | GI50 [6] | GI50 [8] | GI50 [9] | GI50 [2] | GI50 [5] | GI50 [7]
N#CNc1nc(C(=O)Nc2ccc(Cl)cc2)cc(-c2ccccc2)n1 | > 100 µM | > 100 µM | > 100 µM | > 100 µM | > 100 µM | > 100 µM | > 100 µM | > 100 µM | > 100 µM |  |  |  |  |  |  |  |  |  |  | 
CC(=O)OC1C/C(C)=C/[C@H](O)CC(C)/C=C/[C@@]2(C)CCC(C(C)(C)O)C12 (stereo partly drawn) | > 100 µM | > 100 µM | > 100 µM | > 100 µM | > 100 µM | > 100 µM | > 100 µM | > 100 µM | > 100 µM |  |  |  |  |  |  |  |  |  |  | 
COc1ccc(Cn2c3c(c4c(O)cccc42)C(=O)c2ccccc2-3)cc1 | 32 µM |  | 21.5 µM | 33.9 µM |  | > 100 µM |  | 67.7 µM | 49.3 µM | 8.52 µM | 9.16 µM | 10.7 µM | 28.1 µM | 11.8 µM | 24.3 µM | 13.8 µM | 15.8 µM |  |  | 
O=C(O)C1=C(Cl)c2ccccc2S1(=O)=O | > 100 µM |  |  | > 100 µM | > 100 µM | > 100 µM | > 100 µM | > 100 µM | > 100 µM |  |  |  |  |  |  |  |  |  |  | 
Cc1cccc(NC(=O)Cc2nc3ccccc3s2)c1C | > 100 µM | > 100 µM |  | > 100 µM | > 100 µM | > 100 µM | > 100 µM | > 100 µM | > 100 µM |  |  |  |  |  |  |  |  |  |  | 
CN(/C(=N\O)c1ccccc1)c1ccccc1 | > 100 µM | 49.6 µM | > 100 µM |  | > 100 µM |  | 48.7 µM | 69.3 µM |  |  |  |  |  |  |  |  |  |  |  | 
O=C(Nc1cc([N+](=O)[O-])cc([N+](=O)[O-])c1)OC1C2CCC1C1OC1C2 (stereo not drawn) | > 50 µM | > 50 µM | > 50 µM | > 50 µM | > 50 µM | > 50 µM | > 50 µM | > 50 µM | > 50 µM |  |  |  |  |  |  |  |  |  |  | 
CC(C)[C@H](O)C(=O)N[C@H]1Cc2ccc3c(c2)[C@]24C5=C(N=C(O5)[C@H](C(C)C)NC1=O)c1nc(Cl)c(o1)-c1c(Cl)[nH]c5cccc(c15)-c1cccc2c1N[C@H]4O3 | > 10 µM | 0.083 µM |  |  | > 10 µM | > 10 µM |  | > 10 µM | > 10 µM | < 0.001 µM | < 0.001 µM | < 0.001 µM | > 10 µM |  | < 0.001 µM |  |  |  |  | 
CN(C)C(=S)/N=c1\ssc(=S)n1Cc1ccccn1 | > 100 µM | 45.5 µM | > 100 µM | > 25.9 µM | > 52.3 µM |  | > 19.8 µM | > 100 µM | > 100 µM |  |  |  |  |  |  |  |  |  |  | 
COc1ccc(CC(C#N)c2cc(OC)c(OC)c(OC)c2)cc1 (stereo not drawn) | > 100 µM | 0.231 µM | 3.88 µM | 46.6 µM | > 100 µM | > 47.4 µM | 0.125 µM | > 100 µM | > 100 µM |  |  |  |  |  |  |  |  |  |  | 
O=C(Cc1nc2ccccc2s1)C(=O)Nc1ccc(Cl)cc1Cl | > 100 µM | > 100 µM | > 100 µM | > 100 µM | > 100 µM | > 100 µM |  | > 100 µM | > 100 µM |  |  |  |  |  |  |  |  |  |  | 
N=C(N)Cn1cnc2ccccc21 | > 100 µM | > 100 µM |  | > 100 µM |  | > 100 µM | > 100 µM | > 100 µM | > 100 µM |  |  |  |  |  |  |  |  |  |  | 
CC(=O)[CH-]C(=O)c1ccccc1.CC(=O)[CH-]C(=O)c1ccccc1.CC12CC3(C)CC(C)(C1)CC([O-])(C2)C3.CC[O-].[Ti+4] | > 100 µM | 38.5 µM | 50.6 µM | 95.5 µM | 53.3 µM | > 100 µM | > 100 µM | 57.5 µM | > 100 µM | 29.5 µM | 18.8 µM |  |  | 8.54 µM | 34.4 µM | 16 µM | 28.9 µM | 17.5 µM | 17.9 µM | 27.8 µM
O/N=C1/C(=C/c2ccc(Cl)cc2)CCCC1C(NO)c1ccc(Cl)cc1 (stereo not drawn) | 57.4 µM | 88.1 µM | 67.1 µM | 44.4 µM | 32.8 µM | 62.2 µM | 43.3 µM | 63.4 µM | 37.2 µM |  |  |  |  |  |  |  |  |  |  | 
C[n+]1ccc2[nH]c3ccccc3c2c1 | > 100 µM | > 100 µM | > 100 µM | > 100 µM | > 100 µM | > 100 µM | > 100 µM | > 100 µM | > 100 µM |  |  |  |  |  |  |  |  |  |  | 
O=C1C(Nc2cccc(O)c2)=C(Sc2ccc(Cl)cc2)C(=O)N1Cc1ccccc1 | 35.9 µM |  | 33.2 µM | 7.42 µM | > 100 µM | 29.6 µM |  | > 100 µM | 28.3 µM | 5.38 µM | 5.45 µM | 5.86 µM | > 100 µM | 2.23 µM | 3.81 µM | 7.93 µM | 3.05 µM |  | 14.1 µM | 
Cn1c(=O)c2[nH]cnc2n(CC(=O)O)c1=O | > 100 µM | > 100 µM | > 100 µM | > 100 µM |  | > 100 µM |  | > 100 µM | > 100 µM |  |  |  |  |  |  |  |  |  |  | 
O=C1C(Cl)=C(Nc2ccc3c(c2NC2=C(Cl)C(=O)c4ccccc4C2=O)C(=O)c2ccccc2C3=O)C(=O)c2ccccc21 | 4.61 µM | 8.07 µM |  | 9.37 µM | 2.99 µM | 7.81 µM | 14 µM | 9.01 µM | 17.5 µM | 1.95 µM |  |  |  | 1.66 µM | 2.75 µM | 1.75 µM | 3.25 µM | 2.83 µM | 1.42 µM | 2.36 µM
CCC[CH2][Sn]1([CH2]CCC)[O]CC([CH2][Sn]([c]2ccccc2)([c]2ccccc2)[c]2ccccc2)[O]1 (stereo not drawn) | 31.4 µM | 28.3 µM |  | 18.7 µM |  | 13.6 µM | 8.38 µM | 28.7 µM | 28.5 µM | 16.5 µM |  |  |  | 2.85 µM | 2.98 µM | 15.3 µM | 3.22 µM | 15 µM |  | 2.47 µM
CN(Cc1ccccc1)c1nc(=[N+](C)C)ss1 | > 100 µM | > 100 µM | > 100 µM | > 100 µM | > 100 µM | > 100 µM | > 100 µM | > 100 µM | > 100 µM |  |  |  |  |  |  |  |  |  |  | 
